Where “and” joins values, the source holds several entries; their conditions need not be identical. Equal entries are not always repeated.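 Assay format: 96-well plates, 48-hour exposure. Here, GI50 denotes the concentration required for 50% inhibition of growth. The concentration for full growth arrest is given as TGI.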

Test systems include LOX IMVI melanoma; HCT-15 colon; IGROV1 ovarian; EKVX NSCLC; NCI-H23 lung; A498 renal; 786-0 renal; SF-295 CNS; MDA-MB-231 breast; NCI-H226 lung.
Holding throughout (experiment): DTP human tumour cell line panel, 48 h

A word on the GI50: it is the concentration at which growth is held to half of that of the control. By TGI is commonly meant the concentration giving total growth inhibition. Take `COC(=O)NC1C(C)OC(OC2C/C=C(/C)C3C=CC4C(OC5CC(OC6CCC(OC7CC(O)C(OC8CCC(O)C(C)O8)C(C)O7)C(C)O6)C(OC(C)=O)C(C)O5)C(C)CC(C)C4C3(C)/C(O)=C3/C(=O)OC4(CC(C=O)=CC(O)C4/C=C\2C)C3=O)CC1(C)[N+](=O)[O-]` (stereo not drawn): the 50% growth inhibitory concentration (GI50) in the experiment on LOX IMVI melanoma is 281 nM; with HCT-15 colon, 1220 nM; with IGROV1 ovarian, 1470 nM; in the experiment on EKVX NSCLC it was 367 nM; with NCI-H23 lung, 171 nM; with A498 renal it was 199 nM. Further, the GI50 with 786-0 renal was 210 nM; in the experiment on SF-295 CNS, 0.271 µM. Also, the TGI in the experiment on LOX IMVI melanoma was 1320 nM and 808 nM; in the experiment with HCT-15 colon, 3.4 µM and 4.26 µM; with IGROV1 ovarian, 8.43 µM and 3.15 µM; with EKVX NSCLC, 5.49 µM and 0.864 µM; in the experiment on NCI-H23 lung it was 2.22 µM and 0.403 µM; in the experiment on A498 renal, 1.65 µM and 0.508 µM. Besides, the TGI in the experiment with 786-0 renal is 2.2 µM and 0.518 µM; in the experiment on SF-295 CNS, 2.76 µM and 4.15 µM; in the experiment on MDA-MB-231 breast, 3.49 µM; in the experiment on NCI-H226 lung, 2.72 µM.

In the case of `CN=C(N)c1ccc(N=C(N)c2ccc(-c3ccc(C(N)=Nc4ccc(C(N)=NC)cc4)cc3)cc2)cc1`, the GI50 is 83000 nM in the experiment on LOX IMVI melanoma; over 100000 nM in the experiment on HCT-15 colon; 38600 nM in the experiment on IGROV1 ovarian; over 100000 nM in the experiment on EKVX NSCLC; over 100000 nM with NCI-H23 lung; over 100000 nM in the experiment with A498 renal. Moreover, the GI50 in the experiment on 786-0 renal is over 100000 nM; in the experiment with SF-295 CNS, 41.1 µM; in the experiment on MDA-MB-231 breast, over 100 µM; in the experiment on NCI-H226 lung it was 55.9 µM. Also, the TGI in the experiment on LOX IMVI melanoma was over 100000 nM; in the experiment on HCT-15 colon, over 100 µM; in the experiment with IGROV1 ovarian, over 100 µM; with EKVX NSCLC, over 100 µM; in the experiment on NCI-H23 lung, over 100 µM; with A498 renal it was over 100 µM. Further, the TGI in the experiment with 786-0 renal, with SF-295 CNS, in the experiment on MDA-MB-231 breast and with NCI-H226 lung was over 100 µM throughout.

For `COc1cc(/C=C/C(=O)c2cccc(-n3cc(-c4cc(OC)c(OC)c(OC)c4)[nH]c3=O)c2)cc(OC)c1OC`, the GI50 in the experiment on LOX IMVI melanoma is 1230 nM; in the experiment on HCT-15 colon, 1890 nM; in the experiment on IGROV1 ovarian, 1600 nM; with EKVX NSCLC, 9480 nM; in the experiment on NCI-H23 lung, 2000 nM; in the experiment with A498 renal, 20300 nM. Moreover, the GI50 with 786-0 renal is 1590 nM; in the experiment on SF-295 CNS, 4.96 µM; with MDA-MB-231 breast, 4.19 µM; in the experiment with NCI-H226 lung it was 14.4 µM. The total growth inhibition concentration (TGI) with LOX IMVI melanoma was 3480 nM; in the experiment with HCT-15 colon, 7.51 µM; with IGROV1 ovarian it was 3.79 µM; in the experiment with EKVX NSCLC, over 100 µM; in the experiment on NCI-H23 lung it was 4.68 µM; in the experiment with A498 renal, over 100 µM. The TGI turned out to be 3.14 µM in the experiment with 786-0 renal, 19.5 µM in the experiment on SF-295 CNS, 26.3 µM in the experiment with MDA-MB-231 breast and 80.3 µM with NCI-H226 lung.

Consider `C#Cc1cccc(Nc2ncnc3cc(NC(=O)CCl)ccc23)c1`, for which the GI50 in the experiment with LOX IMVI melanoma was 740 nM; with HCT-15 colon, 743 nM; in the experiment on IGROV1 ovarian, 1430 nM; in the experiment on EKVX NSCLC, 2500 nM; with NCI-H23 lung, 3260 nM; in the experiment on A498 renal, 2770 nM. Further, the GI50 in the experiment on 786-0 renal is 1070 nM; in the experiment with SF-295 CNS it was 3.51 µM; in the experiment with MDA-MB-231 breast, 3.35 µM; in the experiment on NCI-H226 lung, 4.72 µM. The TGI with LOX IMVI melanoma turned out to be 2970 nM; in the experiment with HCT-15 colon it was 3.42 µM; in the experiment on IGROV1 ovarian it was 6.84 µM; in the experiment with EKVX NSCLC it was 7.01 µM; in the experiment on NCI-H23 lung, 8.01 µM; in the experiment on A498 renal it was 7.28 µM. The total growth inhibition concentration (TGI) in the experiment with 786-0 renal came to 5.53 µM; in the experiment with SF-295 CNS, 6.95 µM; in the experiment on MDA-MB-231 breast it was 7.28 µM; in the experiment with NCI-H226 lung it was 11.6 µM.

Consider `COc1cnc2c(c1)C(=O)c1c-2n(CCCNC2=NCCS2)c(=O)c2cc(F)ccc12`, for which the concentration for 50% growth inhibition (GI50) is 111 nM with LOX IMVI melanoma; 1210 nM with HCT-15 colon; 434 nM with IGROV1 ovarian; 897 nM in the experiment on EKVX NSCLC; 220 nM with NCI-H23 lung; 264 nM in the experiment with A498 renal. Besides, the GI50 is 271 nM with 786-0 renal, 0.0518 µM with SF-295 CNS, 1.14 µM with MDA-MB-231 breast and 0.247 µM with NCI-H226 lung. Moreover, the TGI with LOX IMVI melanoma is 1120 nM; with HCT-15 colon, 4.53 µM; in the experiment with IGROV1 ovarian it was 15.5 µM; in the experiment on EKVX NSCLC it was 24.5 µM; with NCI-H23 lung, 1.66 µM; in the experiment with A498 renal, 1.63 µM. For the same compound, the TGI with 786-0 renal is 1.31 µM; in the experiment with SF-295 CNS, 0.891 µM; in the experiment on MDA-MB-231 breast it was 2.57 µM; in the experiment with NCI-H226 lung, 1.66 µM.

`COc1ccc(-c2cc(=O)c3c(O)c(OC)c(OC)c(OC)c3o2)cc1OC`: the TGI in the experiment on LOX IMVI melanoma is over 100000 nM; in the experiment on HCT-15 colon, over 100 µM; in the experiment on IGROV1 ovarian it was over 100 µM; in the experiment with EKVX NSCLC it was over 100 µM; in the experiment with NCI-H23 lung, over 100 µM; with A498 renal, over 100 µM. The TGI in the experiment on 786-0 renal, with SF-295 CNS, with MDA-MB-231 breast and with NCI-H226 lung was over 100 µM each time.

In the case of `O=C(Nc1ccc(Oc2ccc3nc(NC(=O)c4ccco4)[nH]c3c2)cc1)Nc1cc(C(F)(F)F)ccc1F`, the GI50 with LOX IMVI melanoma was 537 nM; in the experiment with HCT-15 colon, 1330 nM; in the experiment on IGROV1 ovarian, 1230 nM; in the experiment with EKVX NSCLC it was 1750 nM; in the experiment on NCI-H23 lung, 852 nM; in the experiment with A498 renal, 929 nM. Besides, the GI50 with 786-0 renal is 3550 nM; with SF-295 CNS, 1.76 µM; with MDA-MB-231 breast, 1.09 µM; in the experiment on NCI-H226 lung it was 0.28 µM. Besides, the TGI with LOX IMVI melanoma is 6040 nM; in the experiment with HCT-15 colon, over 17.2 µM; in the experiment with IGROV1 ovarian, 10.2 µM; with EKVX NSCLC it was over 25 µM; in the experiment on NCI-H23 lung, 9.08 µM; with A498 renal it was 5.4 µM. Further, the TGI in the experiment with 786-0 renal is 10.4 µM; in the experiment with SF-295 CNS, over 12.2 µM; in the experiment on MDA-MB-231 breast, 5.77 µM; in the experiment on NCI-H226 lung it was 4.02 µM.

With `O=C1CC(c2c[nH]c3ccc(F)cc23)C(=O)N1` (stereo not drawn), the GI50 in the experiment on LOX IMVI melanoma, with HCT-15 colon, in the experiment on IGROV1 ovarian, in the experiment with EKVX NSCLC, in the experiment with NCI-H23 lung and in the experiment on A498 renal was over 100000 nM throughout. In addition, the GI50 is over 100000 nM with 786-0 renal, over 100 µM in the experiment with SF-295 CNS, over 100 µM in the experiment with MDA-MB-231 breast and over 100 µM in the experiment with NCI-H226 lung. Also, the TGI is over 100000 nM in the experiment on LOX IMVI melanoma; over 100 µM in the experiment with HCT-15 colon; over 100 µM with IGROV1 ovarian; over 100 µM in the experiment on EKVX NSCLC; over 100 µM in the experiment on NCI-H23 lung; over 100 µM in the experiment with A498 renal. Moreover, the TGI in the experiment on 786-0 renal, in the experiment with SF-295 CNS, in the experiment with MDA-MB-231 breast and in the experiment on NCI-H226 lung was over 100 µM in each case.
